Here are results for four compounds from patent US11401516B2, “Channel modulators” (AUCKLAND UNISERVICES LIMITED, priority 2014, dated 2022).

Data set [1] relates to Cx43 hemichannel and pannexin channel mediated ATP release from hCMVEC cells. Kind of data set: In vitro ischaemia injury ATP assay. Type of data set: cell-based, human. The procedure: (§1) Using an in vitro ischemia injury model, the Cx43 hemichannel and pannexin channel mediated ATP release was differentiated using the connexin hemichannel blocking mimetic peptide5 at 100 μM concentration (S. J. O'Carroll, et al., Cell communication & adhesion 15, 27 (May, 2008)) and 1 mM Probenecid (W. R. Silverman et al., The Journal of biological chemistry 284, 18143 (Jul. 3, 2009)).
Human cerebral microvascular endothelial cells (hCMVEC) were trypsinised (TrypLE Express, Life technologies) and plated at a density of 0.025×10^6 cells per well in a collagen-coated 12-well plate (1 μg/cm2) a day prior to the experiment. Cells were incubated in culture medium overnight. Hypoxic, acidic, ion-shifted Ringer injury solution that mimics ionic concentrations and acid-base shifts of the interstitial space in hypoxic-ischemic brains (A. Bondarenko, et al., Glia 34, 143 (Apr. 15, 2001)) was used to trigger hemichannel opening. The injury solution (in mM): 38 NaCl, 13 NaHCO3, 3 Na-gluconate, 65 K-gluconate, 38 NMDG-Cl, 1 NaH2PO4, 1.5 MgCl2, was bubbled in N2 gas (>99% purity, 20 L/min) for 5 minutes and pH adjusted to 6.6 using 5 M HCl. Control solution that mimics physiological conditions contained (in mM): 124 NaCl, 3 KCl, 26 NaHCO3, […], 1 NaH2PO4, 1.3 CaCl2, 1.5 MgCl2, and 10 Glucose, and pH 7.4 was adjusted using 5 M HCl (Bondarenko, 2001). […] Following a 2-hour injury the solutions were immediately placed on ice. In the injury and reperfusion model, hCMVEC cells were incubated in 500 μL of normal solution or injury solution for 2 hours at 37° C. in 95% O2 and 5% CO2. Following 2 hour injury, the solutions were discarded and replaced with 500 μL of the normal solution, or Tonabersat (10 μM) dissolved in normal solution, and were incubated for 2 hours at 37° C. in 95% O2 and 5% CO2. These solutions were also then immediately placed on ice. Peptide5 (100 μM)+/−Probenecid (1 mM) were used as controls for both injury and injury-reperfusion models. ATP concentration in the samples was determined using a Luciferin/luciferase bioluminescence reaction (ATP Determination Kit, Molecular Probes) and detected using a luminescence plate reader (VICTOR X, Perkin Elmer #2030-0010). Standard curves were generated in each experiment from an ATP standard (500 nM) to quantify the concentration of ATP in the test samples. The data is presented as mean±standard error relative to the injury or injury-reperfusion control. Statistically significant differences between samples were identified using one-way analysis of variance and Tukey's multiple comparisons test.

For data set [2], the system named is hCMVEC cells. Kind of data set: Scrape load assay (Lucifer yellow dye transfer). The class given is cell-based, human. The note with it: broad spectrum gap-junction blocker, concentration not given. The protocol: In the below Examples 2, 4, 5, 8 and 10 using human cerebral microvascular endothelial cells (hCMVEC), cells were prepared by growing them in collagen coated (30 μg/mL) T25 or T75 flasks maintained in Medium M199 supplemented with 10% FCS, 1 μg/mL hydrocortisone, 3 ng/mL hFGF, 1 ng/mL hEGF, 10 μg/mL heparin, 1× penicillin streptomycin neomycin (Life Technologies), and cAMP (100 μL 100% cAMP to 100 mL media). Cells were maintained at 37° C. with 95% O2 and 5% CO2.
In this Example, human cerebral microvascular endothelial cells (hCMVEC) were grown in collagen coated (1 μg/mL) T25 flasks maintained in Medium M199 supplemented with 10% FBS, 1 μg/mL hydrocortisone, 3 ng/mL hFGF, 1 ng/mL hEGF, 10 μg/mL heparin and cAMP (100 μL 100% cAMP to 100 mL media) in a humidified atmosphere at 37° C. with 5% CO2. One day prior to experimentation, these cells were trypsinized and plated at a density of 4×10^5 cells/well in a collagen-coated 12 well-plate in the same medium. For treatments, cells were cultured in the presence of peptide5, a control gap junction channel blocker (carbenoxolone), or tonabersat for the respective time intervals prior to scrape dye loading. The blockers were also present in the respective scrape loading solutions.
For scrape loading the hCMVEC cells were washed three times with phosphate buffered saline (PBS) (without divalent cations). A solution of PBS+0.05% lucifer yellow was added to cells. The cells then received a scrape to the monolayer using a size 10 carbon steel surgical blade and incubated in the dark at 37° C. with 5% CO2 for 5 minutes. The cells were washed with PBS four times and then 1 mL of PBS added for fluorescent microscopy.
The live cells were then imaged on a Nikon TE2000E fluorescent microscope whilst maintained in a chamber heated to 37° C. with 5% CO2. Three images pairs were obtained at 10× magnification for each of a phase contrast image to view total cells and a fluorescent image to visualize Lucifer yellow using 488 nm excitation and a GFP filter block. Gap junctional communication was determined by counting the number of Lucifer yellow positive cells and presented as a percentage to the positive cells of the control group. Data was graphed as mean+standard error of the mean using Prism v5.02 software. Significance was determined through students two-tailed, unpaired, T Tests. *=p<0.05, **=[…], ***=p<0.001.
An in vitro scrape-loading assay with extracellular Lucifer Yellow (LY), a fluorescent dye that is transferred only through coupled GJs was performed to test whether Tonabersat inhibits GJ communication (M. H. el-Fouly, et al., Experimental cell research 168, 422 (February, 1987)). A single scrape wound was made to a confluent monolayer of hCMVEC cells to enable LY dye to gain access to the cytoplasm of cells at the edge of the wounded region and allow the dye to transfer to adjacent cells through GJs.

The target of data set [3] is T1, Connexin43 hemichannel (Homo sapiens, UniProt P17302).
T1 construct: expressed in transfected cells; host or cells: HeLa (connexin-deficient parent), Cx43IRESeGFP, puromycin selection
T1 sequence (P17302 2-382 limits assumed): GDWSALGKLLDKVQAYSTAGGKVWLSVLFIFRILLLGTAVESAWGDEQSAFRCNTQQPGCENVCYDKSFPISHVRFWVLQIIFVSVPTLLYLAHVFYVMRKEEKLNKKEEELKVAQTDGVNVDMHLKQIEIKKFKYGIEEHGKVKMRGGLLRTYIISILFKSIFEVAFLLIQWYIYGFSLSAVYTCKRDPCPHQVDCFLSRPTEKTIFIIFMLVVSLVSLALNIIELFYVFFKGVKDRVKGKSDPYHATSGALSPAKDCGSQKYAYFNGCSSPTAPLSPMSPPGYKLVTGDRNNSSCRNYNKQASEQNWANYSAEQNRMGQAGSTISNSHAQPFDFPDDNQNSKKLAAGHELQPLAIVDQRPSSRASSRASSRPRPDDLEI
In words: Whole-cell voltage clamp, Connexin43 transfected HeLa cells. The class given is cell-based. The note with it: voltage steps; peptide5 100 μM; carbenoxolone and LaCl3 concentration not stated. The protocol: Whole-cell voltage clamp studies were conducted on connexin deficient HeLa cells, Connexin43 transfected HeLa cells and isolated human cerebral microvascular endothelial cells (hCMVEC).
HeLa cells were seeded at 0.045×10^6 cells/mL on 18 mm rat collagen I coated coverslips 16-24 hours before each experiment. Cx43IRESeGFP HeLa cells were cultured overnight in DMEM supplemented with 10% FCS and 1 μg/mL Puromycin at 37° C. at 95% O2 and 5% CO2. Control Cx-deficient cells were maintained in DMEM supplmented with 10% FCS. Coverslips were transferred to a chamber continuously perfused with modified Krebs-Ringer solution containing (in mM): 140 NaCl, 5.4 KCl, 1 MgCl2, 10 mM Hepes and pH adjusted to 7.4 at room temperature. The internal pipette solution contained (in mM): 130 KCl, 10 sodium aspartate, 0.26 CaCl2, 2 EGTA, 5 tetraethylammonium-Cl, 1 MgCl, 3 MgATP, and 5 Hepes at pH 7.2; and was kept on ice. The solutions are described in Contreras J E, et al., Cell Communication and Adhesion (2003), 10:245-249. To resolve single currents in whole-cell configuration, cells with low capacitance (<10 pF) and high resistance pipettes ([…]) with a seal resistance of (>5 GOhm) were selected for recording and analysis.

For data set [4] the following is noted: bovine.
In data set [5] the test system is Cx43 hemichannel and pannexin channel mediated ATP release from hCMVEC cells. Kind of data set: In vitro ischaemia injury-reperfusion ATP assay. The class given is cell-based, human. The note with it: 2 h, 1000 µM. The procedure: as §1
Human cerebral microvascular endothelial cells (hCMVEC) were trypsinised (TrypLE Express, Life technologies) and plated at a density of 0.025×10^6 cells per well in a collagen-coated 12-well plate (1 μg/cm2) a day prior to the experiment. Cells were incubated in culture medium overnight. Hypoxic, acidic, ion-shifted Ringer injury solution that mimics ionic concentrations and acid-base shifts of the interstitial space in hypoxic-ischemic brains (A. Bondarenko, et al., Glia 34, 143 (Apr. 15, 2001)) was used to trigger hemichannel opening. […] ATP concentration in the samples was determined using a Luciferin/luciferase bioluminescence reaction (ATP Determination Kit, Molecular Probes) and detected using a luminescence plate reader (VICTOR X, Perkin Elmer #2030-0010). Standard curves were generated in each experiment from an ATP standard (500 nM) to quantify the concentration of ATP in the test samples. […]

The subject of data set [6] is retinal vessel leak. In words: Retinal ischemia reperfusion (glaucoma model), vessel leak with Evan's blue dye. The class given is in vivo, Wistar rats. The note with it: 4 hr post-ischemia, intravitreal. The procedure: (§2) The effects of chemical modification and particulate formulation delivery were measured on rats modelled for glaucoma with a retinal ischemia reperfusion. First, a retinal ischemia reperfusion model was created. A total of 121 adult male Wistar rats weighing 200 to 300 g were used for the study. Retinal ischemia was modeled in the left eye (120 mmHg for 60 min), with the right eye as the control, and then the connexin 43 modulator peptide formulations were injected intravitreally immediately as solutions in 1×PBS delivery agent. The connexin 43 modulator peptide used was SEQ-Pept5, in both its unmodified and chemically modified (didodecyl) forms. The formulations used were neat (just diluted in 1×PBS delivery media) solutions of nanoparticles or microparticles. After reperfusion, Evan's blue dye was injected intraperitoneally 4 hr after reperfusion to visualize vessel leak using confocal microscopy. Retinal whole mounts were collected at 8 hr and 28 days for Cxn43 quantitification, and 28 and 90 days for gangliol cell (RGC) density quantification.

The subject of data set [7] is Retinal ganglion cell. Kind of data set: Retinal ischemia reperfusion (glaucoma model), RGC count. Type of data set: in vivo, Wistar rats. The note with it: after 28 days. The protocol: as §2
For data set [8], the target named is Cxn43 (Rattus norvegicus, UniProt P08050). Kind of data set: Retinal ischemia reperfusion (glaucoma model), Cxn43 quantification. Type of data set: in vivo, Wistar rats. As to conditions: 8 hr after ischemia. The protocol:
as §2

Where a SMILES comes first, the peptide text is derived from it. Where no end group is shown, it is not given here. didodecyl = two dodecyl groups (C12-C12) conjugated at the N terminus

Chain of Cxn43 (P08050 2-382 limits assumed): as the sequence (P17302 2-382 limits assumed) above, with D123E, I163V, K242R, S250T, A252P, A256S, Q262P, S343A, L346V counted along it

For `CC1(C)[C@@H](OC(=O)CCC(=O)O)CC[C@]2(C)[C@H]3C(=O)C=C4[C@@H]5C[C@@](C)(C(=O)O)CC[C@]5(C)CC[C@@]4(C)[C@]3(C)CC[C@@H]12` [Carbenoxolone], the “level of the inhibition of ATP release” value in data set [1] (ischemic injury) is 65%. Besides, the “LY positive cells compared to control” value in data set [2] was 77.8±7.4%. Besides, the Connexin43 hemichannel activity result in data set [3] is on record as “virtually complete hemichannel block”.

The compound `CC(C)C[C@H](NC(=O)[C@H](Cc1ccccc1)NC(=O)[C@H](CS)NC(=O)[C@H](CC(=O)O)NC(=O)[C@@H](N)C(C)C)C(=O)N[C@@H](CO)C(=O)N[C@@H](CCCNC(=N)N)C(=O)N1CCC[C@H]1C(=O)N[C@H](C(=O)N[C@@H](CCC(=O)O)C(=O)N[C@@H](CCCCN)C(=O)N[C@H](C(=O)O)[C@@H](C)O)[C@@H](C)O` [Peptide5] (H-VDCFLSRPTEKT-OH) showed a half-life in data set [4] of roughly 2 h.

On to `CCCN(CCC)S(=O)(=O)c1ccc(C(=O)O)cc1` [Probenecid, p-[Dipropylsulfamoyl]benzoic acid], for which, in data set [1] (2-hour injury, 100 μM Peptide5, 1 mM Probenecid, alone or combined), the “total extracellular ATP release, percentage of the injury control” value was 83.1±4.5%. The “ATP release, percentage of the injury-reperfusion (IR) control” value in data set [5] amounted to 99.3±4.4%.

For the compound “C12-C12 Cxn43 MP: connexin 43 modulator peptide conjugated at the N terminus to two dodecyl groups, SEQ ID NO: 237 (didodecyl-VDCFLSRPTEKT)”, the vessel leak result in data set [6] is reported as “reduction in vessel leak”. In addition, in data set [7], the RGC survival entry is “over 93%”. In data set [8], the Cxn43 spot counts entry is listed as “reduced moreso”.
